In patent publication US20040106135A1, “Assay for PPAR ligand dependent gene modulation” (priority 2002, published 2004):
Like-named read-outs stand apart in the source and are kept apart here.

Legend:
Type in all cases: cell-based, human
[1] = tested on: PDK-4 mRNA in HK-2 cells (endogenous PPARα); test: PDK-4 mRNA induction in HK-2 cells (real-time RT-PCR); settings: for EC50: 24 hours
Procedure: (§1) Values were normalized to 18S rRNA levels.
EC50 values were determined for PDK-4 mRNA induction by quantitative PCR under conditions used to generate the data shown in FIG. 2. EC50 values in the transactivation assays were determined by transfection of an expression plasmid encoding a GAL4-hPPARα chimera into cells co-expressing a luciferase reporter gene under the transcriptional control of GAL4 upstream activating elements.
(§2) Cell culture: The following cell lines were obtained from American Type Culture Collection (ATCC) and cultured in the recommended medium for each cell type: HepG2, HK-2, Caki-1, LNCaP (CloneFGC), SW872, and ACHN. PPARα compounds were prepared to a 500× stock in DMSO; corresponding control cells received an equal volume of vehicle (0.2% v/v).
Real-time PCR: Fluorescence-based real-time PCR was performed essentially as described (Abbaszade et al., (1999) J. Biol. Chem. 274:23443-23450). Primers and probes designed from the hamster pyruvate dehydrogenase kinase 4 (PDK4) sequence (Genbank Accession No. AF321218), human pyruvate dehydrogenase kinase 4 (PDK-4) sequence (Genbank Accession No. NM_002612) and human adipose differentiation-related protein (ADFP) sequence (Genbank Accession No. NM_001122) were synthesized and purified by Biosearch Technologies. Probes for ADFP and PDK-4 were modified at the 5′ end with the reporter dye 6-FAM, and at the 3′ end with the quencher dye Black Hole Quencher 1 (Biosearch Technologies). Probes detecting rat 18S rRNA were modified at the 5′ end with VIC and at the 3′ end with TAMRA (Biosearch Technologies). For detection of hamster PDK4, primers 5′-[…] (SEQ ID NO:2), 5′[…] (SEQ ID NO:3), and probe 5′-[…] (SEQ ID NO:4) were used. For detection of human PDK4, primers 5′-[…] (SEQ ID NO:5), 5′-[…] (SEQ ID NO:6), and probe 5′-[…] (SEQ ID NO:7) were used. For detection of human ADFP, primers 5′-[…] (SEQ ID NO:8), 5′-[…] (SEQ ID NO:9), and probe 5′-[…] (SEQ ID NO: 10) were used. For detection of 18s rRNA, primers 5′-[…] (SEQ ID NO:11), 5′-[…] (SEQ ID NO:12), and probe 5′-[…] (SEQ ID NO:13) were used. Template cDNA was generated using the Advantage RT-PCR kit according to the manufacturer's (Clontech) instructions using random hexamers and 1 μg of DNaseI-treated total RNA. Taqman-based real-time PCR expression profiling was performed using 25 ng of each cDNA according to the manufacturer's (PE Biosystems) instructions with fluorescence being monitored in real-time with an ABI Prism 7700 (PE Biosystems). Relative expression levels were determined essentially as described (Gibson et al., (1996) Genome Res. 6:995-1001) using standard curves for each transcript. Relative abundance was then determined from these standard curves, subtracting mRNA levels obtained from negative control reactions performed in the absence of reverse transcriptase, and normalized to 18S rRNA levels. All expression measurements were performed in duplicate in two independent assays, generating a total of four measurements per cDNA.

[2] = tested on: ADRP mRNA in HK-2 cells (endogenous PPARα); test: ADRP mRNA induction in HK-2 cells (real-time RT-PCR); settings: 100 nM GW9578
Procedure: as §1, §2
Real-time PCR: Fluorescence-based real-time PCR was performed essentially as described (Abbaszade et al., (1999) J. Biol. Chem. 274:23443-23450). […] Taqman-based real-time PCR expression profiling was performed using 25 ng of each cDNA according to the manufacturer's (PE Biosystems) instructions with fluorescence being monitored in real-time with an ABI Prism 7700 (PE Biosystems). Relative expression levels were determined essentially as described (Gibson et al., (1996) Genome Res. 6:995-1001) using standard curves for each transcript. Relative abundance was then determined from these standard curves, subtracting mRNA levels obtained from negative control reactions performed in the absence of reverse transcriptase, and normalized to 18S rRNA levels. […]

ACHN cells = test: Transcriptional profiling by DNA microarray, ACHN cells
From the text: (§3) Threshold cutoffs were set at fold change >1.4; p<0.01; and statistically significant in at least 2 experiments. The genes fatty acid CoA ligase 2 (FACL2), palmitoyl acyl-CoA oxidase 1 (ACOX1), and carnitine palmitoyl acyl-CoA transferase (CPT1A) are included for comparison based on published reports that they are PPARα responsive genes in HepG2 cells over expressing PPARα (Hsu et al., (2001) J. Biol. Chem. 276:27950-8; Lawrence et al., (2001) J. Biol. Chem. 276:31521-7).
(§4) Expression profiling: Expression profiling of RNA samples was performed essentially as described (Lockhart et al., (1996) Nat. Biotechnol. 14:1675-80) using the Affymetrix human U95Av2 array. Briefly, RNA was isolated from 100 mm cell culture dishes, DNased, and 15 μg used as a template for double stranded cDNA synthesis according to standard protocols (Invitrogen). […] The resultant cRNA products were purified using RNeasy columns (Qiagen), pooled, and quantitated spectrophotometrically. […]
(§5) Data Analysis: Affymetrix CEL files from GeneChip 4.0 (Affymetrix) were imported into Resolver 2.0 under an empirically derived Affymetrix error model (Rosetta Inpharmatics). […] Accordingly, the statistical significance (P-value) of a given expression data point takes into account the underlying error associated with the Affymetrix transcript abundance measurements as determined by this platform-specific error model. […]

HepG2 cells = test: Transcriptional profiling by DNA microarray, HepG2 cells; settings: endogenous levels of PPARα
From the text: as §3, §4, §5

LNCaP cells = test: Transcriptional profiling by DNA microarray, LNCaP cells
Procedure: Expression profiling: Expression profiling of RNA samples was performed essentially as described (Lockhart et al., (1996) Nat. Biotechnol. 14:1675-80) using the Affymetrix human U95Av2 array. Briefly, RNA was isolated from 100 mm cell culture dishes, DNased, and 15 μg used as a template for double stranded cDNA synthesis according to standard protocols (Invitrogen). Reverse transcription was primed using a T7-modified oligo-dT primer (5-[…]-d(T)24-3′) (SEQ ID NO: 1). In vitro transcription was then performed on each double stranded cDNA synthesis, according to the manufacturer's (Enzo Diagnostics) instructions. The resultant cRNA products were purified using RNeasy columns (Qiagen), pooled, and quantitated spectrophotometrically. For each sample, 20 μg of in vitro transcribed cRNA was fragmented by heating the sample to 94° C. in the presence of 40 mM Tris-acetate, pH 8.1, 100 mM potassium acetate, and 30 mM magnesium acetate. […]
as §5

EC50 ([1]; RT-PCR, read-out: EC50 for activation of PDK-4 in HK-2 cells): ~0.01 µM
Structure (SMILES): CCCCCCCN(CCc1ccc(SC(C)(C)C(=O)O)cc1)C(=O)Nc1ccc(F)cc1F [GW9578, ureido-thioisobutyric acid]
Time to near maximal increase of PDK-4 mRNA ([1]; HK-2 cells, 100 nM GW9578): ≤ 2 h
EC50 ([1]; PDK-4 mRNA induction by quantitative PCR, normalized to 18S rRNA, read-out: EC50 (μM) in HK-2 (PDK-4)): 0.01 µM
Time to near maximal increase of ADRP mRNA [2]: ≤ 2 h
ADRP induction in ACHN cells (ACHN cells): significantly induced
Response of PPARα responsive genes (FACL2, CPT1, ACOX1) in HepG2 cells (HepG2 cells): No response
Changes in gene expression in LNCaP cells (LNCaP cells): only minor changes
